Measured values published in patent US20040005256A1, “Crystallization system utilizing atomization” (priority 2002, published 2004).

Assay: maximum concentration of D,L-Threonine dissolved in water
Assay type: physicochemical
Conditions: solid dissolved in water (solvent) before atomization into acetone anti-solvent
Protocol: For example, the material-containing solution may be composed of a solvent, such as water, and a material to be crystallized, such as D,L-Threonine, dissolved in the water. The anti-solvent could be acetone. The solid D,L-Threonine is dissolved at its maximum concentration ratio (160 g/L) in water. The D,L-Threonine solution is atomized and introduced into the acetone. The atomized solution and the acetone are then mixed to produce the crystallized product.

C[C@@H](O)[C@H](N)C(=O)O (racemic) [D,L-Threonine]
maximum concentration ratio in water: 160 g/L
